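Compound exposure: 48 hours, 5 concentrations, 96-well plates. At the GI50, growth is halved. Definition used: TGI = concentration required for complete inhibition of growth.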
Tests used:
Assay in all cases: NCI-60 cell line screen, 48 h
[1] = tested on: 786-0 renal
[2] = tested on: A498 renal
[3] = tested on: A549 NSCLC
[4] = tested on: ACHN renal
[5] = tested on: BT-549 breast
[6] = tested on: CAKI-1 renal
[7] = tested on: CCRF-CEM leukemia
[8] = tested on: COLO 205 colon
[9] = tested on: DU-145 prostate
[10] = tested on: HCC-2998 colon
[11] = tested on: HCT-116 colon
[12] = tested on: HCT-15 colon
[13] = tested on: HL-60(TB) leukemia
[14] = tested on: HOP-62 NSCLC
[15] = tested on: HOP-92 NSCLC
[16] = tested on: HS 578T breast
[17] = tested on: HT29 colon
[18] = tested on: K-562 leukemia
[19] = tested on: KM12 colon
[20] = tested on: LOX IMVI melanoma
[21] = tested on: M14 melanoma
[22] = tested on: MALME-3M melanoma
[23] = tested on: MCF7 breast
[24] = tested on: MDA-MB-231 breast
[25] = tested on: MDA-MB-435
[26] = tested on: MOLT-4 leukemia
[27] = tested on: NCI-H226 lung
[28] = tested on: NCI-H23 lung
[29] = tested on: NCI-H460 lung
[30] = tested on: NCI-H522 lung
[31] = tested on: NCI/ADR-RES ovarian
[32] = tested on: OVCAR-4 ovarian
[33] = tested on: OVCAR-5 ovarian
[34] = tested on: PC-3 prostate
[35] = tested on: RPMI-8226 leukemia
[36] = tested on: RXF 393 renal
[37] = tested on: SF-268 CNS
[38] = tested on: SF-295 CNS
[39] = tested on: SF-539 CNS
[40] = tested on: SK-MEL-2 melanoma
[41] = tested on: SK-MEL-28 melanoma
[42] = tested on: SK-MEL-5 melanoma
[43] = tested on: SK-OV-3 ovarian
[44] = tested on: SN12C renal
[45] = tested on: SNB-19 CNS
[46] = tested on: SNB-75 CNS
[47] = tested on: SR leukemia
[48] = tested on: SW-620 colon
[49] = tested on: T-47D breast
[50] = tested on: U251 CNS
[51] = tested on: UACC-257 melanoma
[52] = tested on: UACC-62 melanoma
[53] = tested on: UO-31 renal

## COc1ccc2c(c1)c(CC(=O)[Se]CCC#N)c(C)n2C(=O)c1ccc(Cl)cc1
[1]
  GI50: 1.92 µM
  TGI: 3.47 µM
[2]
  GI50: 1.6 µM
  TGI: 3.08 µM
[3]
  GI50: 1.87 µM
  TGI: 3.86 µM
[4]
  GI50: 2.93 µM
  TGI: 7.79 µM
[5]
  GI50: 1.71 µM
  TGI: 3.35 µM
[6]
  GI50: 1.93 µM
  TGI: 3.5 µM
[7]
  GI50: 2.43 µM
  TGI: > 100 µM
[8]
  GI50: 2.26 µM
  TGI: 4.67 µM
[9]
  GI50: 2.26 µM
  TGI: 5.93 µM
[10]
  GI50: 3.61 µM
  TGI: 12.8 µM
[11]
  GI50: 1.74 µM
  TGI: 3.34 µM
[12]
  GI50: 2.17 µM
  TGI: 5.27 µM
[13]
  GI50: 1.2 µM
  TGI: 6.25 µM
[14]
  GI50: 1.77 µM
  TGI: 3.46 µM
[15]
  GI50: 1.5 µM
  TGI: 3.11 µM
[16]
  GI50: 2.35 µM
  TGI: 8.79 µM
[17]
  GI50: 2.45 µM
  TGI: 7.39 µM
[18]
  GI50: 3.24 µM
  TGI: > 100 µM
[19]
  GI50: 4.13 µM
  TGI: 31 µM
[20]
  GI50: 1.54 µM
  TGI: 3.96 µM
[21]
  GI50: 1.39 µM
  TGI: 3.04 µM
[22]
  GI50: 1.7 µM
  TGI: 4.36 µM
[23]
  GI50: 2.56 µM
  TGI: 9.7 µM
[24]
  GI50: 2.04 µM
  TGI: 4.97 µM
[25]
  GI50: 1.75 µM
  TGI: 3.47 µM
[26]
  GI50: 2.9 µM
  TGI: > 100 µM
[27]
  GI50: 1.55 µM
  TGI: 4.01 µM
[28]
  GI50: 2.28 µM
  TGI: 5.86 µM
[29]
  GI50: 2.37 µM
  TGI: 8.38 µM
[30]
  GI50: 1.84 µM
  TGI: 3.54 µM
[31]
  GI50: 2.18 µM
  TGI: 6.31 µM
[32]
  GI50: 2.38 µM
  TGI: 6.94 µM
[33]
  GI50: 2.8 µM
  TGI: 8.87 µM
[34]
  GI50: 2.54 µM
  TGI: 7.35 µM
[35]
  GI50: 2.51 µM
  TGI: 6.99 µM
[36]
  GI50: 1.52 µM
  TGI: 3.17 µM
[37]
  GI50: 2.31 µM
  TGI: 5.07 µM
[38]
  GI50: 1.8 µM
  TGI: 3.3 µM
[39]
  GI50: 2.02 µM
  TGI: 4.36 µM
[40]
  GI50: 2.39 µM
  TGI: 5.43 µM
[41]
  GI50: 2.19 µM
  TGI: 5.66 µM
[42]
  GI50: 2.05 µM
  TGI: 4.18 µM
[43]
  GI50: 3.62 µM
  TGI: 6.33 µM
[44]
  GI50: 2.49 µM
  TGI: 6.67 µM
[45]
  GI50: 1.89 µM
  TGI: 3.58 µM
[46]
  GI50: 1.5 µM
  TGI: 3.72 µM
[47]
  GI50: 3.78 µM
  TGI: > 100 µM
[48]
  GI50: 3.41 µM
  TGI: 10.4 µM
[49]
  GI50: 9.78 µM
  TGI: 38.8 µM
[50]
  GI50: 1.66 µM
  TGI: 3.11 µM
[51]
  GI50: 1.6 µM
  TGI: 3.46 µM
[52]
  GI50: 1.94 µM
  TGI: 4.7 µM
[53]
  GI50: 1.73 µM
  TGI: 4.2 µM
